ChEMBL document CHEMBL1201862, “PubChem BioAssay data set” (2004)
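Protocol summary: plate cells (96-well), add compound at 5 concentrations, incubate 48 h, interpolate endpoints linearly. The concentration for 50% growth inhibition is given as GI50.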 Activity calls are given as the source filed them. Rule as the data show it: active = GI50 up to about 1.1 µM and inactive = higher.

Assays:
Test in all cases: NCI-60 cell line screen, 48 h
OVCAR-8 = test system: OVCAR-8
OVCAR-5 = test system: OVCAR-5
A549 = test system: A549
HCC 2998 = test system: HCC 2998
SF-539 = test system: SF-539
XF498 = test system: XF498
ACHN = test system: ACHN
KM-20L2 = test system: KM-20L2
HOP-92 = test system: HOP-92
U-251 = test system: U-251
CAKI-1 = test system: CAKI-1
COLO 205 = test system: COLO 205
SK-MEL-28 = test system: SK-MEL-28
LXFL 529 = test system: LXFL 529
CCRF-CEM = test system: CCRF-CEM
786-0 = test system: 786-0
SF-295 = test system: SF-295
LOX IMVI = test system: LOX IMVI
DMS-114 = test system: DMS-114
SK-MEL-2 = test system: SK-MEL-2
SR = test system: SR
IGROV-1 = test system: IGROV-1
HOP-62 = test system: HOP-62
UACC-62 = test system: UACC-62
UACC-257 = test system: UACC-257
RPMI-8226 = test system: RPMI-8226
M19-MEL = test system: M19-MEL
NCI-H460 = test system: NCI-H460
NCI-H226 = test system: NCI-H226
Malme-3M = test system: Malme-3M
TK-10 = test system: TK-10
HT-29 = test system: HT-29
SK-OV-3 = test system: SK-OV-3
RXF 393 = test system: RXF 393
KM12 = test system: KM12
SK-MEL-5 = test system: SK-MEL-5
SF-268 = test system: SF-268
SN12C = test system: SN12C
HCT-116 = test system: HCT-116
NCI-H23 = test system: NCI-H23
MOLT-4 = test system: MOLT-4
NCI-H522 = test system: NCI-H522
DMS-273 = test system: DMS-273
OVCAR-3 = test system: OVCAR-3
SNB-19 = test system: SNB-19
EKVX = test system: EKVX
SW-620 = test system: SW-620
HCT-15 = test system: HCT-15
HL-60 = test system: HL-60
DLD-1 = test system: DLD-1
K562 = test system: K562

Cn1c(C2CC(C)(C)c3c2c2ccccc2n3C)cc2ccccc21 (stereo unspecified)
GI50 (OVCAR-8): > 304 µM (inactive)
GI50 (OVCAR-5): > 304 µM (inactive)
GI50 (A549): > 304 µM (inactive)
GI50 (HCC 2998): > 304 µM (inactive)
GI50 (SF-539): 79.4 µM (inactive)
GI50 (XF498): 115 µM (inactive)
GI50 (ACHN): > 304 µM (inactive)
GI50 (KM-20L2): > 304 µM (inactive)
GI50 (HOP-92): 40.9 µM (inactive)
GI50 (U-251): > 304 µM (inactive)
GI50 (CAKI-1): 192 µM (inactive)
GI50 (COLO 205): > 304 µM (inactive)
GI50 (SK-MEL-28): > 304 µM (inactive)
GI50 (LXFL 529): > 304 µM (inactive)
GI50 (CCRF-CEM): > 304 µM (inactive)
GI50 (786-0): > 304 µM (inactive)
GI50 (SF-295): 195 µM (inactive)
GI50 (LOX IMVI): > 304 µM (inactive)
GI50 (DMS-114): 138 µM (inactive)
GI50 (SK-MEL-2): > 304 µM (inactive)
GI50 (SR): > 304 µM (inactive)
GI50 (IGROV-1): 225 µM (inactive)
GI50 (HOP-62): > 304 µM (inactive)
GI50 (UACC-62): > 304 µM (inactive)
GI50 (UACC-257): 265 µM (inactive)
GI50 (RPMI-8226): 118 µM (inactive)
GI50 (M19-MEL): > 304 µM (inactive)
GI50 (NCI-H460): > 304 µM (inactive)
GI50 (NCI-H226): 180 µM (inactive)
GI50 (Malme-3M): > 304 µM (inactive)
GI50 (TK-10): > 304 µM (inactive)
GI50 (HT-29): > 304 µM (inactive)
GI50 (SK-OV-3): > 304 µM (inactive)
GI50 (RXF 393): > 304 µM (inactive)
GI50 (KM12): > 304 µM (inactive)
GI50 (SK-MEL-5): > 304 µM (inactive)
GI50 (SF-268): > 304 µM (inactive)
GI50 (SN12C): > 304 µM (inactive)
GI50 (HCT-116): 30.1 µM (inactive)
GI50 (NCI-H23): > 304 µM (inactive)
GI50 (MOLT-4): > 304 µM (inactive)
GI50 (NCI-H522): 72.8 µM (inactive)
GI50 (DMS-273): > 304 µM (inactive)
GI50 (OVCAR-3): 64.6 µM (inactive)
GI50 (SNB-19): > 304 µM (inactive)
GI50 (EKVX): > 304 µM (inactive)
GI50 (SW-620): > 304 µM (inactive)
GI50 (HCT-15): > 304 µM
GI50 (HL-60): > 304 µM (inactive)
GI50 (DLD-1): > 304 µM (inactive)
GI50 (K562): > 304 µM (inactive)
